Laboratory results published in PubChem BioAssay (NCI).
Where “and” joins values, the source holds several entries; their conditions need not be identical. Equal values may be shown once.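 96-well plates; 48 h exposure; 5 concentrations. Endpoints by linear interpolation between flanking doses. Not reached: highest tested concentration assigned. GI50: concentration for 50% inhibition of growth. TGI denotes the concentration required for complete inhibition of growth.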

Tests used:
Experiment in all cases: NCI anticancer screen, dose series, 48 h
A549 NSCLC = tested on: A549 NSCLC
CAKI-1 renal = tested on: CAKI-1 renal
CCRF-CEM leukemia = tested on: CCRF-CEM leukemia
KM12 colon = tested on: KM12 colon
M14 melanoma = tested on: M14 melanoma
NCI-H460 lung = tested on: NCI-H460 lung
SF-268 CNS = tested on: SF-268 CNS
SF-539 CNS = tested on: SF-539 CNS
DU-145 prostate = tested on: DU-145 prostate
HS 578T breast = tested on: HS 578T breast

Row | SMILES | TGI (A549 NSCLC) [µM] | TGI (CAKI-1 renal) [µM] | TGI (CCRF-CEM leukemia) [µM] | TGI (KM12 colon) [µM] | TGI (M14 melanoma) [µM] | TGI (NCI-H460 lung) [µM] | TGI (SF-268 CNS) [µM] | TGI (SF-539 CNS) [µM] | GI50 (A549 NSCLC) [µM] | GI50 (CCRF-CEM leukemia) | GI50 (DU-145 prostate) [µM] | GI50 (HS 578T breast) [µM] | TGI (HS 578T breast) [µM] | GI50 (KM12 colon) | GI50 (M14 melanoma) [µM] | GI50 (NCI-H460 lung) [µM] | GI50 (SF-268 CNS) [µM] | GI50 (SF-539 CNS) [µM] | GI50 (CAKI-1 renal) [µM] | TGI (DU-145 prostate) [µM]
1 | O=C1CCC(=O)C(C(=O)CCC(=O)Nc2ccc(Cl)cc2)C1 (stereo unspecified) | > 100 | > 100 | > 100 | > 100 | > 100 | > 100 | > 100 | > 100 | – | – | – | – | – | – | – | – | – | – | – | –
2 | COc1cc2ccc(C(=O)O)cc2cc1OC | > 100 | – | > 100 | > 100 | > 100 | > 100 | > 100 | > 100 | – | – | – | – | – | – | – | – | – | – | – | –
3 | O=C1NC(=Nc2ccccc2Cl)SC1C(=O)Nc1ccc([N+](=O)[O-])cc1[N+](=O)[O-] (stereo unspecified) | > 100 | > 100 | > 100 | > 100 | > 100 | > 100 | > 100 | > 100 | – | – | – | – | – | – | – | – | – | – | – | –
4 | Cn1cc(C2=C(c3cn(C)c4cc(Cl)ccc34)C(=O)NC2=O)c2ccccc21 | > 25 | – | > 25 | 4.35 | > 25 | > 8.9 | > 15.1 | 0.141 | 0.115 | 0.093 µM | 0.119 | 0.0731 | 1.93 | 0.106 µM | 0.0879 | 0.0961 | 0.18 | 0.0556 | – | –
5 | CN(C)CC1CCCCCCCCCCC1=O (stereo unspecified) | > 100 | > 100 | > 100 | > 100 | > 100 | > 100 | > 100 | – | > 100 | > 10 µM and 99.4 µM | > 100 | – | > 100 | > 10 µM and 78.3 µM | > 100 | > 100 | > 100 | – | > 100 | > 100
6 | C/C(=N/OCCC(=O)O)C1CC1 | > 100 | > 100 | > 100 | > 100 | > 100 | > 100 | > 100 | > 100 | – | – | – | – | – | – | – | – | – | – | – | –
7 | CC1(C)CC(=O)C=C(NC(=O)c2ccccc2)C1 | > 100 | > 100 | > 100 | > 100 | > 100 | > 100 | > 100 | > 100 | – | – | – | – | – | – | – | – | – | – | – | –
8 | Cc1c(-c2ccnc(N)n2)c2c(n1-c1ccccc1)C(=O)c1ccccc1C2=O | > 100 | 62.6 | > 100 | 45.8 | > 100 | 60 | – | – | 36.1 | > 100 µM | 21.1 | 22.4 | 60.8 | 16.8 µM | 46.8 | 17.6 | – | – | 17 | 60.7
9 | Cc1cccc2c1C(=O)OC2(c1cccc2ccccc12)c1cccc2ccccc12 | > 100 | > 100 | > 100 | > 100 | > 100 | > 100 | > 100 | – | – | – | – | – | – | – | – | – | – | – | – | –
10 | CC(C)=CCCC1(C)C=Cc2c(ccc3c2[nH]c2cc(O)c(C)cc23)O1 (stereo unspecified) | 17.5 | – | 15.2 | 8.77 | 7.44 | 9.7 | 10.2 | 9.78 | 6.59 | 4.97 µM | – | – | – | 4.74 µM | 3.92 | 4.73 | 5.06 | 4.59 | – | –
11 | CCCN(CCC)c1c([N+](=O)[O-])cc(C(N)=O)cc1[N+](=O)[O-] | > 100 | > 100 | > 100 | > 100 | > 100 | > 100 | > 100 | > 100 | – | – | – | – | – | – | – | – | – | – | – | –
12 | c1ccc2c(Nc3ccc4c(c3)OCO4)c3ccoc3nc2c1 | 35.8 | 33.3 | > 100 | 35.2 | 29.8 | > 100 | 51.6 | – | 6.96 | 15.2 µM | 14 | > 100 | > 100 | 14.2 µM | 14.3 | 16.5 | 15.6 | – | 12.3 | 31.2
13 | O=C1/C(=C/c2ccccc2)CN(C(=O)Oc2ccccc2)C/C1=C\c1ccccc1 | > 100 | – | 23.9 | > 100 | > 100 | > 100 | > 100 | 22.3 | – | – | – | – | – | – | – | – | – | – | – | –
14 | CCOc1c(Cc2ccccc2)c(=O)n2c3ccccc3n3c(=O)n(C)c(=O)c1c23 | > 100 | > 100 | – | > 100 | > 100 | > 100 | > 100 | > 100 | – | – | – | – | – | – | – | – | – | – | – | –
15 | CCc1cc2c(c3[nH]ccc13)[C@@H](C)C[C@H]2C | 42.2 | 34.7 | 43.4 | 36.5 | 34.4 | 29.4 | – | – | – | – | – | – | – | – | – | – | – | – | – | –
16 | CN(C)/C=C/C(=O)c1cccc(C(=O)/C=C/N(C)C)n1 | > 100 | – | > 100 | > 100 | > 100 | > 100 | > 100 | > 100 | – | – | – | – | – | – | – | – | – | – | – | –
17 | O=C(O)CSc1nnc(COc2ccccc2)n1-c1ccccc1 | > 100 | – | > 100 | > 100 | > 100 | > 100 | > 100 | > 100 | – | – | – | – | – | – | – | – | – | – | – | –
18 | CO[C@H]1/C=C/C=C/C=C/C[C@H](OC(=O)[C@@H](C)NC(=O)C2CCCCC2)[C@H](C)[C@@H](O)/C(C)=C\CCC2=CC(=O)C=C(NC(=O)C1)C2=O | 1.92 | – | > 50 | 10.1 | 0.746 | 1.14 | 1.01 | 0.519 | 0.188 | 0.114 µM | 0.127 | 0.119 | 0.59 | 0.131 µM | 0.119 | 0.111 | 0.123 | 0.128 | – | 1.4
19 | Cc1ccc(/C=C2\CN(C(=O)CCN3CCC(=NO)CC3)C/C(=C\c3ccc(C)cc3)C2=O)cc1 | 7.68 | – | – | – | – | – | 4.7 | 3.27 | 2.43 | – | – | 3.2 | > 100 | – | – | – | 1.92 | 1.77 | – | –
20 | O=[P+](O)c1cc2c3ccccc3ccc2c2ccccc12 | > 100 | – | > 100 | > 100 | > 100 | > 100 | > 100 | > 100 | – | – | – | – | – | – | – | – | – | – | – | –
21 | COC(=O)C1=C(c2cc(OC)c(OC)c(OC)c2)OC(c2cc(OC)c(OC)c(OC)c2)C1 (stereo unspecified) | > 100 | 60.9 | > 100 | 32.4 | 50 | > 100 | > 100 | 75.1 | – | – | – | – | – | – | – | – | – | – | – | –
